In patent US7214507B2, “Plant enzymes for bioconversion” (Plant Research International B.V., priority 2001, dated 2007):
Entries after “also recorded” stand apart in the source; their conditions may differ.

Tests used:
[1] = system: (+)-germacrene A hydroxylase; assay: Conversion of sesquiterpenes by a microsomal pellet of chicory in the presence of NADPH; settings: for Conversion by the (+)-germacrene A hydroxylase containing microsomal pellet (in words): NADPH, microsomal pellet from chicory roots
Method: During the whole procedure the plant material was kept on ice as much as possible. After 5 times several seconds of mixing, the slurry was transferred to the cheesecloth with an additional 10 ml of extraction buffer. The cheesecloth was squeezed out and the filtrate was centrifuged (Sigma 2K15) for 20 minutes at 20,000 g and 4° C. The supernatant was poured over a funnel filled with glass wool. […] The resulting microsomal pellets (about 6) were stored under argon at −80° C.
Before incubation, 10 pellets were pottered in 30 mL of assay buffer consisting of 25 mM Tris pH 7.5), 2 mM DTT, 1 mM ascorbic acid, 5 μM FAD, 5 μM FMN and 10% (v/v) glycerol. The enzyme suspension was divided in 1 mL aliquots and incubated with 5 μL substrate solution in the presence of a 1 mM NADPH-regenerating system that consisted of 1 mM NADPH, 5 mM glucose-6-phosphate, and 1.2 IU glucose-6-phosphate dehydrogenase (all from Sigma). The initial concentration of substrate in each assay was 45 μM and all were done in duplicate. […] After 60 minutes the incubations were stopped by storing them at −20° C. in a freezer.
The enzyme assays were extracted 2 times with 1 mL 20% (v/v) ether in pentane, after the addition of 5 μM cis-nerolidol (Fluka). The organic phase was filtered through a glasswool-plugged (dimethyl chlorosilane-treated, Chrompack) Pasteur pipette that contained 0.4 gram of silica and a little anhydrous MgSO4. The pipette was rinsed with 1.5 mL ether and the extract was concentrated to approximately 50 μL under a stream of nitrogen.

leucodin biosynthesis = assay: Formation of leucodin from (+)-costunolide by 20,000 g chicory root supernatant; type: biochemical, Cichorium intybus L.
Method: (§1) Incubations were also done with boiled desalted supernatant and in the absence of NADPH. The experiments were repeated with elema-1,3,11(13)-trien-12-oic acid (FIG. 2, 9) and a mixture of α- and γ-costic acid (14) that might serve as substrate analogues for the germacrene acid (4). After 1 h of incubation at 30° C., the reactions were stored in the freezer.
(§2) The organic phase was filtered through a glass-wool plugged (dimethyl chlorosilane-treated glasswool; Chrompack) Pasteur pipette that contained 0.45 g of silica and a little anhydrous MgSO4. […] Samples of 2 μL were analysed by GC-MS using an injection port temperature of 320° C. to provoke Cope rearrangement of (+)-costunolide (5).
(§3) Incubations as described for the germacrene acid were also done with (+)-costunolide (30 μM) to test whether any further enzymatic conversion of this compound would occur during the incubation of germacrene acid. Parthenolide (20 μM) (FIG. 9, 17) was incubated as well since it might be an intermediate in the formation of guaianolides. […] The effect of established cytochrome P450 inhibitors and CO on the conversion of (+)-costunolide was studied, just as the effect of various pyridine nucleotide cofactors and an argon atmosphere.

(+)-costunolide synthase = molecular target: T1, (+)-costunolide synthase (Cichorium intybus, UniProt G3GBK0); assay: (+)-Costunolide synthase activity, 20,000 g chicory root supernatant with germacrene acid; type: biochemical, Cichorium intybus L.; settings: for Percentage Enzyme Activity ± SD, (+)-costunolide synthase: addition at 1 mM, 100% = sum of dehydrosaussurea lactone, saussurea lactone and leucodin peaks with 1 mM NADPH; for Conversion of substrate analogues by the (+)-costunolide synthase (in words): 20,000 g supernatant, NADPH
T1 construct: A cell free extract of chicory roots was prepared from the frozen material; from tissue; host or cells: chicory roots, desalted 20,000 g supernatant
T1 sequence (G3GBK0 1-494): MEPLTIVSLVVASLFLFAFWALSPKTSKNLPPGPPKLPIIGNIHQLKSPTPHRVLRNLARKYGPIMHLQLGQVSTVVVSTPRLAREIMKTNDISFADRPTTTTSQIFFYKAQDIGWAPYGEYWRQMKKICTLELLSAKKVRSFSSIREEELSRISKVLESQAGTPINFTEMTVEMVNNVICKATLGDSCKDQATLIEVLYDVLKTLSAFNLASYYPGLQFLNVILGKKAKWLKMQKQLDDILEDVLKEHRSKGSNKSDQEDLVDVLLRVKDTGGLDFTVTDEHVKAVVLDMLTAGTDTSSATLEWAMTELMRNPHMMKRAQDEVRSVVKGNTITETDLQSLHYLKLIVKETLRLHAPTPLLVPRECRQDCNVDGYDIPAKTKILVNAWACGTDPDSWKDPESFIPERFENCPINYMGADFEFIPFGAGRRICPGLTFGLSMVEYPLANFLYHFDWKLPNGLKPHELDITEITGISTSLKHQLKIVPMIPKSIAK
Method: A cell free extract of chicory roots was prepared from the frozen material in the same way as described for isolation of the germacrene A hydroxylase (Example 1), but MgCl2 was not added to the extraction buffer since the accompanying (+)-germacrene A synthase activity was not essential for the detection of (+)-costunolide synthase activity. […] DTT was omitted from the assay buffer, because SH-groups present in DTT might undergo an “Michael-type addition” to the C11–C13 exocyclic double bond of (+)-costunolide Kupchan et al., 1970). […] Incubations were also done with boiled desalted supernatant and in the absence of NADPH. The experiments were repeated with elema-1,3,11(13)-trien-12-oic acid (FIG. 2, 9) and a mixture of α- and γ-costic acid (14) that might serve as substrate analogues for the germacrene acid (4). After 1 h of incubation at 30° C., the reactions were stored in the freezer.
as §2, with “(5). Mass spectra were recorded at 70 eV scanning from 35 to 300 atomic mass units; the GC oven temperature was programmed as described before (de Kraker et al., 1998).” for “(5).”
To determine whether the formation of (+)-costunolide (5) from germacrene acid (4) was catalysed by a cytochrome P450-enzyme, the effect of various established cytochrome P450-inhibitors (cytochrome C, metyrapone, clotrimazole, micozanole, and amino-benzotriazole) on this reaction were tested, as well as the effect of CO or an argon atmosphere. The cofactor dependence was also investigated, i.e. NAD(P)^+ or NADH was added instead of NADPH. Experiments were carried out in a similar manner as described for the germacrene A hydroxylase in Example I using a 20,000 g supernatant and 5 μL of 0.2 mM cis-nerolidol as internal standard. Blue-light reversal of CO-inhibition was investigated with gas-mixtures of 10% O2 plus 90% N2 (blank) and 10% O2 plus 90% CO.

[2] = system: (+)-costunolide reductase activity; assay: Formation of 11(S),13-dihydrocostunolide from (+)-costunolide by 20,000 g chicory root supernatant; type: biochemical, Cichorium intybus L.; settings: for Reduction of the C11–C13 exocyclic double bond (in words): 20 μM substrate, NADPH
Method: as §1, §2, §3

[3] = system: (+)-germacrene A hydroxylase; assay: Effect of the used solvent for (+)-γ-gurjunene on enzyme activity; type: biochemical, Cichorium intybus L.; settings: peak height of γ-gurjunene alcohol relative to the internal standard (5 nmol cis-nerolidol); 5 μL of 10 mM γ-gurjunene in the solvent
Method: Before experiments as described in this example were started, it was tested which organic solvent could be best used to dissolve the substrate. […] Karp et al., 1990).

[4] = system: NAD(P)+-dependent dehydrogenase(s); assay: Oxidation of alcohols by 150,000 g supernatant of chicory roots with NAD(P)+; type: biochemical, Cichorium intybus L.
Method: It was assumed that this β-nootkatol is an intermediate in the formation of nootkatone. For this reason incubations of 100 μM β-nootkatol were performed at pH 10 with NAD(P)^+and a 150,000 g supernatant of chicory roots, such as described for the conversion of (−)-elema-1,3,11(13)-12-ol and germacra-1(10),4,11(13)-trien-12-ol by NADP^+-dependent dehydrogenases by De Kraker et al. (2001). During incubation the added β-nootkatol was converted for more than 60% into nootkatone in the presence of either 1 mM NADP^+ or 1 mM NAD^+. In the absence of these cofactors conversion still amounted to 25%, whereas the boiled enzyme extract gave no conversion of β-nootkatol. At pH 7.5, enzyme activity was slightlylower, whereas a 150,000 g pellet, as expected, yielded 3-fold less dehydrogenase activity than the corresponding supernatant.
To get some more information about the substrate specificity of the dehydrogenase(s) present in chicory roots, incubations with the 150,000 g supernatant were also performed with 100 μM trans,trans-farnesol as substrate (FIG. 19) in the presence of either NAD^+ or NADP^+. Trans,trans-farnesol was converted up to 60% into a mixture of trans,trans-farnesal and cis,trans-farnesal, and small amounts of farnesoic acid were observed as well.

[5] = atmosphere: 80% CO + 20% O2 or argon, air = 100%
[6] = pyridine nucleotide cofactor 1 mM, substrate (+)-costunolide
[7] = inhibitor 10 μM, DMSO (1%) control = 100%
[8] = inhibitor 100 μM, control = 100%

C=C(C)C1CC=C(C)CC1 (single isomer, unassigned; (+)) [(+)-limonene]
Conversion by the (+)-germacrene A hydroxylase containing microsomal pellet (in words) [1]: Some conversion

C=C(C)[C@H]1C/C=C(\C)CC/C=C(\C)CC1 [(+)-germacrene A]
Subsequent oxidations into germacrene aldehyde and acid, share of the produced germacrene alcohol ([1]; microsomal pellet, pH 7.5, NADPH-regenerating system): approx. 15%

C=C(C)[C@@H]1CC[C@@]2(C)CCCC(=C)[C@@H]2C1 [(+)-β-selinene]
Share of the added substrate that was hydroxylated ([1]; 50 nmol added): Approximately 30%

CC1=CC[C@@]23[C@@H]([C@@H]12)[C@H](C(C)C)CC[C@H]3C [(−)-(α)-Cubebene]
Conversion by the (+)-germacrene A hydroxylase containing microsomal pellet (in words) [1]: not converted

[C-]#[O+] [CO]
Formation of leucodin from (+)-costunolide, effect of inhibitors (in words) (leucodin biosynthesis): strongly inhibited
Percentage Enzyme Activity ± SD, Leucodin (22) (leucodin biosynthesis; [5]): 8 ± 1%
Effect on the produced sum of (+)-costunolide, 11(S),13-dihydrocostunolide and leucodin (in words) ((+)-costunolide synthase; 90% CO + 10% O2, blue light 450 nm): inhibitory effect
Percentage Enzyme Activity ± SD, Dihydrocostunolide (20) [2, 5]: 140 ± 4%

C[S+](C)[O-] [DMSO]
Enzyme activity ± SD [3]: 1.80 ± 0.09

NC(=O)C1=CN([C@@H]2O[C@H](COP(=O)(O)OP(=O)(O)OC[C@H]3O[C@@H](n4cnc5c(N)ncnc54)[C@H](O)[C@@H]3O)[C@@H](O)[C@H]2O)C=CC1 [NADH]
Percentage Enzyme Activity ± SD, Leucodin (22) (leucodin biosynthesis; [6]): 0 ± 0%
Percentage Enzyme Activity ± SD, (+)-costunolide synthase ((+)-costunolide synthase): 7 ± 2%
Percentage Enzyme Activity ± SD, Dihydrocostunolide (20) [2, 6]: 14 ± 2%

NC(=O)C1=CN([C@@H]2O[C@H](COP(=O)(O)OP(=O)(O)OC[C@H]3O[C@@H](n4cnc5c(N)ncnc54)[C@H](OP(=O)(O)O)[C@@H]3O)[C@@H](O)[C@H]2O)C=CC1 [NADPH]
Percentage Enzyme Activity ± SD, Leucodin (22) (leucodin biosynthesis; [6]): ^a100 ± 10 ^ %
Percentage Enzyme Activity ± SD, (+)-costunolide synthase ((+)-costunolide synthase): 100 ± 8%
Percentage Enzyme Activity ± SD, Dihydrocostunolide (20) [2, 6]: ^a100 ± 3 ^ %

CC(C)=CCC/C(C)=C/CC/C(C)=C/CO [Trans,trans-farnesol, trans,trans-farnesol]
Conversion into a mixture of trans,trans-farnesal and cis,trans-farnesal ([4]; 100 μM substrate, NAD+ or NADP+, 150,000 g supernatant): up to 60%
Conversion of farnesol into farnesal, share of maximum enzyme activity ([4]; pH 7.0, maximum at pH 10): 30%

Nn1nnc2ccccc21 [aminobenzotriazole]
Percentage Enzyme Activity ± SD, Leucodin (22) (leucodin biosynthesis; [7]): 86 ± 33%
Reduction of the amount of measurable enzymatic products of germacrene acid ((+)-costunolide synthase; inhibitor 100 μM): 44%
Percentage Enzyme Activity ± SD, Dihydrocostunolide (20) [2, 7]: 75 ± 8%

[Ar] [argon]
Percentage Enzyme Activity ± SD, Leucodin (22) (leucodin biosynthesis; [5]): 0 ± 0%
Percentage Enzyme Activity ± SD, (+)-costunolide synthase, argon atmosphere ((+)-costunolide synthase; 1 mM NADPH + argon atmosphere): 0 ± 0%
Percentage Enzyme Activity ± SD, Dihydrocostunolide (20) [2, 5]: 134 ± 6%

Clc1ccccc1C(c1ccccc1)(c1ccccc1)n1ccnc1 [clotrimazole]
Percentage Enzyme Activity ± SD, Leucodin (22) (leucodin biosynthesis; [7]): 0 ± 0%
Reduction of the amount of measurable enzymatic products of germacrene acid ((+)-costunolide synthase; inhibitor 100 μM): 97%
Percentage Enzyme Activity ± SD, Dihydrocostunolide (20) [2, 7]: 119 ± 9%

C=C1CC[C@H]2C(=C)CC[C@H]3C(=C)C(=O)O[C@@H]3[C@@H]12 [dehydrocostus lactone]
Reduction of the C11–C13 exocyclic double bond (in words) [2]: not capable of doing the same
Reduction of the C11–C13 exocyclic double bond (in words) ([2]; listed as dehydrocostuslacton): not reduced

C=CC1(C)CCC(C(=C)C(=O)O)CC1C(=C)C (stereo not shown) [elema-1,3,11(13)-trien-12-oic acid]
Conversion of substrate analogues by the (+)-costunolide synthase (in words) ((+)-costunolide synthase): no detectable conversion; also recorded: not capable of converting

CCO [ethanol]
Enzyme activity ± SD [3]: 1.87 ± 0.01

CC(C)=C1C/C=C(\C)CC/C=C(\C)CC1=O [germacrone]
Conversion by the (+)-germacrene A hydroxylase containing microsomal pellet (in words) [1]: not converted; also recorded: not accepted as a substrate; also recorded: not hydroxylated

CCCCCC [hexane]
Enzyme activity ± SD [3]: <0.1

CC(C)O [iso-propanol]
Enzyme activity ± SD [3]: 1.76 ± 0.16

C=C(C)[C@H]1CC=C(C)CC1 [limonene]
Conversion by the (+)-germacrene A hydroxylase containing microsomal pellet (in words) [1]: hardly converted; also recorded: did hardly occur

CC(C)(C(=O)c1cccnc1)c1cccnc1 [metyrapone]
Percentage Enzyme Activity ± SD, Leucodin (22) (leucodin biosynthesis; [8]): 70 ± 16%
Reduction of the amount of measurable enzymatic products of germacrene acid ((+)-costunolide synthase; inhibitor 1 mM): 78%
Percentage Enzyme Activity ± SD, Dihydrocostunolide (20) [2, 8]: 87 ± 11%

Clc1ccc(COC(Cn2ccnc2)c2ccc(Cl)cc2Cl)c(Cl)c1 (stereo not shown) [miconazole]
Percentage Enzyme Activity ± SD, Leucodin (22) (leucodin biosynthesis; [7]): 0 ± 0%
Reduction of the amount of measurable enzymatic products of germacrene acid ((+)-costunolide synthase; inhibitor 100 μM): 71%
Percentage Enzyme Activity ± SD, Dihydrocostunolide (20) [2, 7]: 100 ± 5%

C=C(C)[C@@H]1CC[C@@]2(C)CCC[C@](C)(O)[C@@H]2C1 [neointermedeol]
Less efficiently hydroxylated than β-selinene [1]: 15 fold

CCCCC [pentane]
Enzyme activity ± SD [3]: 0.47 ± 0.07

C=C(C(=O)O)[C@@H]1CC[C@@]2(C)CCC=C(C)[C@@H]2C1 [α-costic acid]
Conversion of substrate analogues by the (+)-costunolide synthase (in words) ((+)-costunolide synthase): not capable of converting

C=C(C(=O)O)[C@@H]1CC[C@@]2(C)CCCC(C)=C2C1 [γ-costic acid]
Conversion of substrate analogues by the (+)-costunolide synthase (in words) ((+)-costunolide synthase): not converted either

(−)-(α)-gurjunene
Conversion by the (+)-germacrene A hydroxylase containing microsomal pellet (in words) [1]: not converted

(−)-limonene
Conversion by the (+)-germacrene A hydroxylase containing microsomal pellet (in words) [1]: Some conversion

cytochrome C: established cytochrome P450 inhibitor
Percentage Enzyme Activity ± SD, Leucodin (22) (leucodin biosynthesis; [8]): 0 ± 0%
Reduction of the amount of measurable enzymatic products of germacrene acid ((+)-costunolide synthase; inhibitor 100 μM): no enzymatic products of germacrene acid (4) were measured
Percentage Enzyme Activity ± SD, Dihydrocostunolide (20) [2, 8]: 105 ± 5%
